In general, IC50 refers to the midpoint of a concentration-inhibition curve. Read a high IC50 as weaker potency in that assay.

The values below come from patent US12077531B2, “Imidazopyridinone compound” (KISSEI PHARMACEUTICAL CO., LTD., priority 2018, dated 2024).

The subject of data set [1] is TNBS induced colitis model rat. The data set is described as follows: Therapeutic effect in TNBS induced colitis model rat (intestinal permeability of FITC). Format: in vivo. The following applies: po, 72 h, 3 mg/kg orally once a day for 3 days, SD rats, mean, test compounds-free group 0, TNBS-untreated group 100, read-out: Inhibition (%): suppressive rate on the intestinal permeability. How it is done:
Test Example 2 Therapeutic Effect in Colitis Model
(1) TNBS Induced Colitis Model Rat
SD rats: 8-weeks-old male SLC (Japan SLC) were used. Under pentobarbital anesthesia, 300 μL of TNBS (28 mg/mL) prepared by 50% ethanol was administered at a point 8 cm from anus in large intestine to cause inflammation. To the solvent-treated group was administrated 300 μL of 50% ethanol. Animals were fasted for 48 hours prior to administration of TNBS. Test compounds (3 mg/kg) prepared by 0.05% methylcellulose solution were orally administered once a day from next day, and it was administered for a total of 3 days. After administering for 3 days, 50 mg/kg FITC was orally administered at 4 hours after administration. Blood samples were collected from jugular vein under isoflurane anesthesia after 4 hours. The serum was centrifuged and fluorescence intensity was detected by PHERAstar FSX (BMG Labtech) to measure the concentration of FITC permeating into circulating blood through the mesentery. The suppressive rate on the intestinal permeability of test compounds was calculated based on the value of test compounds-free group as 0 and the value of TNBS-untreated group as 100.

A short description of data set [2]: Rat PK study: concentration of compounds in large intestine tissue and plasma. Format: in vivo. The conditions noted are these: male, SD, 3 mg/kg oral; for Kp at 8 h: large intestine tissue / plasma, read-out: C/P: ratio of the above Colon and Plasma; for AUC / Cmax: non-fasted; for AUC: read-out: AUC: area under the plasma test compound concentration-time curve (converted); for Cmax: read-out: Cmax: maximum plasma concentration of test compounds in the case of oral administration. As to the method:
Test Example 3 Concentration of Compounds in Large Intestine Tissue
Test compounds (3 mg/kg/5 mL) prepared by 0.05% methylcellulose were orally administered to non-fasted rats (SD, 8-weeks-old, male, Japan SLC). Blood samples were collected from jugular vein at 0.25, 0.5, 1, 2, 4, 6 and 8 hours after the administration. Laparotomy was performed under isoflurane anesthesia and large intestine was isolated. Collected distal large intestine (about 5 cm) was cut open, and then the large intestine was washed with saline on a dish. After washing, the large intestine was minced by a small scissors. About 150 mg thereof was moved to tube. To the tube was added 100 μL of saline, the mixture was homogenized using shake master (1000 rpm×30 minutes). Samples were prepared by the addition with quadruple volume of saline as final volume. The concentrations of the test compound in large intestine tissue and plasma were measured through a quantitative analysis using liquid chromatography-mass spectrometry (LC/MS).

The next data set has as its target human PHD2184-418 (Homo sapiens (Human), UniProt Q9GZT9). The data set is described as follows: PHD2 inhibitory test (fluorescence polarization, binding between PHD2 and HIF-1α). The conditions noted are these: human PHD2184-418, FITC-labeled HIF-1α556-574, 2 μM 2-oxoglutarate, 37° C. 60 minutes. In a few lines: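 N-His-tagged human PHD2 (residues 184–418, E. coli-expressed) was preincubated with compound, then FITC-Ahx-HIF-1α556-574 peptide was added in pH 7.4 HEPES buffer with 10 μM MnCl2 and 2 μM 2-oxoglutarate. After 60 min at 37 °C, fluorescence polarization (ex 470/em 530 nm) was read. Inhibition was calculated against compound-free wells.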
(In general: Fluorescence polarisation rises when a labelled molecule tumbles more slowly, as on binding a larger partner.)

[3] abbreviates: large intestine tissue (distal large intestine), read-out: Colon: concentrations of the test compound in large intestine tissue after 8 hours.
[4] abbreviates: plasma, read-out: Plasma: plasma test compound concentration after 8 hours.

Where two headings read alike, the source gives them in different places. Where only a bound is given, the exact number is not on record here.

human PHD2184-418, sequence (Q9GZT9 184-418): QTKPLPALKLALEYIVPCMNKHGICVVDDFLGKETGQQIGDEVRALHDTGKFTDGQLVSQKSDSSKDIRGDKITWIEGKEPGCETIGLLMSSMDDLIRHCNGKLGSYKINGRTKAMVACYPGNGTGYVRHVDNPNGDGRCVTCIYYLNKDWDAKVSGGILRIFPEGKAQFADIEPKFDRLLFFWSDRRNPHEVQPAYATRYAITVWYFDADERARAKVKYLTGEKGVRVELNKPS

In the case of `Cn1c(C(=O)O)cnc1CN1CC[C@H](n2c(=O)n(-c3ccc(-c4ccc(C(=O)O)cc4)cc3)c3cccnc32)C1` [Example 83, (S)-2-((3-(1-(4′-Carboxy-[1,1′-biphenyl]-4-yl)-2-oxo-1,2-dihydro-3H-imidazo[4,5-b]pyridin-3-yl)pyrrolidin-1-yl)methyl)-1-methyl-1H-imidazole-5-carboxylic acid], the inhibition in vivo at 3 mg/kg in data set [1] is 85%. Besides, the concentration at 8 h in data set [2] (setting [3]) is 54 ng/g. In addition, the Kp at 8 h in data set [2] is > 54. Besides, the concentration at 8 h in data set [2] (setting [4]) was < 1 ng/mL. Also, in data set [2] (plasma), the AUC is 21.5 ng·h/mL and the Cmax was 5 ng/mL. In addition, the IC50 on human PHD2184-418 was 140 nM.

As for `Cn1ccnc1CN1CC[C@H](n2c(=O)n(-c3ccc(-c4ccc(C(=O)O)cc4)cc3O)c3cccnc32)C1` [Example 39, (S)-3′-Hydroxy-4′-(3-(1-((1-methyl-1H-imidazol-2-yl)methyl)pyrrolidin-3-yl)-2-oxo-2,3-dihydro-1H-imidazo[4,5-b]pyridin-1-yl)-[1,1′-biphenyl]-4-carboxylic acid], the inhibition in vivo at 3 mg/kg in data set [1] was found to be 95%. For the same molecule, the concentration at 8 h in data set [2] (setting [3]) turned out to be 214 ng/g. Further, the Kp at 8 h in data set [2] is 71. For the same molecule, the concentration at 8 h in data set [2] (setting [4]) stood at 3 ng/mL. Further, in data set [2] (plasma), the AUC is 34.8 ng·h/mL and the Cmax is 7 ng/mL. On human PHD2184-418, this molecule displayed an IC50 of 340 nM.

For `Cn1c(C(=O)O)cnc1CN1CC[C@H](n2c(=O)n(-c3ccc(-c4ccc(C(=O)O)cc4)c(O)c3)c3cccnc32)C1` [Example 84, (S)-2-((3-(1-(4′-Carboxy-2-hydroxy-[1,1′-biphenyl]-4-yl)-2-oxo-1,2-dihydro-3H-imidazo[4,5-b]pyridin-3-yl)pyrrolidin-1-yl)methyl)-1-methyl-1H-imidazole-5-carboxylic acid], the inhibition in vivo at 3 mg/kg in data set [1] worked out at 117%. Besides, in data set [2] (setting [3]), the concentration at 8 h amounted to 99 ng/g. Besides, the Kp at 8 h in data set [2] was > 99. Moreover, in data set [2] (setting [4]), the concentration at 8 h is < 1 ng/mL. In data set [2] (plasma), the AUC is 1.27 ng·h/mL and the Cmax stood at 1 ng/mL. The IC50 at human PHD2184-418 is 150 nM.

For the molecule `O=C(O)c1ccc(-c2ccc(-n3c(=O)n([C@H]4CCN(Cc5cc(C(=O)O)ccn5)C4)c4ncccc43)cn2)cc1` [Example 46, (S)-2-((3-(1-(6-(4-Carboxyphenyl)pyridin-3-yl)-2-oxo-1,2-dihydro-3H-imidazo[4,5-b]pyridin-3-yl)pyrrolidin-1-yl)methyl)isonicotinic acid], the inhibition in vivo at 3 mg/kg in data set [1] was 63%. For the same molecule, the concentration at 8 h was 174 ng/g in data set [2] (setting [3]) and < 1 ng/mL in data set [2] (setting [4]). The Kp at 8 h in data set [2] is > 174. Besides, the AUC in data set [2] (plasma) was 5.23 ng·h/mL. Further, in data set [2] (plasma), the Cmax was determined as 3 ng/mL. The molecule further gave an IC50 on human PHD2184-418 of 150 nM.
